Patent publication US20040029823A1, “Antisense oligonucleotide compositions and methods for the modulation of JNK proteins” (priority 1997, published 2004)
Strand notation (5' to 3'): a small letter for the sugar, then the base; units joined by * are phosphorothioate-linked, units joined directly phosphodiester-linked; [ ] holds rarer units or linkages, { } end groups; capitals alone tell only the bases. e = 2'-O-(2-methoxyethyl) (MOE); [5mC] = 5-methylcytosine; d = 2'-deoxy (DNA)

system: JNK3 mRNA; assay: Northern assay of JNK3 mRNA levels in SH-SY5Y cells; type: cell-based, human; conditions: 200 nM oligonucleotide
Procedure: Northern Assays: The mRNA expression of each JNK protein was determined by using a nucleic acid probe specifically hybridizable thereto. Nucleic acid probes specific for JNK1, JNK2 and JNK3 are described in Examples 3, 4 and 5, respectively. The probes were radiolabelled by means well known in the art (see, e.g., Short Protocols in Molecular Biology, 2nd Ed., Ausubel et al., Eds., John Wiley & Sons, New York, 1992, pages 3-11 to 2-3-44 and 4-17 to 4-18; Ruth, Chapter 6 In: Methods in Molecular Biology, Vol. 26: Protocols for Oligonucleotide Conjugates, Agrawal, ed., Humana Press Inc., Totowa, N.J., 1994, pages 167-185; and Chapter 10 In: Molecular Cloning: A Laboratory Manual, 2nd Ed., Sambrook et al., Eds., pages 10.1-10.70). The blots were stripped and reprobed with a ^32P-labeled glyceraldehyde 3-phosphate dehydrogenase (G3PDH) probe (Clontech Laboratories, Inc., Palo Alto, Calif.) in order to confirm equal loading of RNA and to allow the levels of JNK transcripts to be normalized with regard to the G3PDH signals.
B. JNK3-specific probes: In initial screenings of a set of oligonucleotides derived from the JNK3 sequence for biological activity, a cDNA clone of JNK3 (Derijard et al., Cell, […], 76, 1025) was radiolabeled and used as a JNK3-specific probe in Northern blots. Alternatively, however, one or more of the oligonucleotides of Table 14 is detectably labeled and used as a JNK3-specific probe.
E. Activities of JNK3 oligonucleotides: The JNK3-specific phosphorothioate, 2′-methoxyethoxy “gapmer” oligonucleotides (Table 14) were screened for their ability to affect JNK3 mRNA levels in SH-SY5Y cells (Biedler et al., Cancer Res., 1973, 33, 2643). SH-SY5Y cells express a variety of mitogen-activated protein kinases (MAPKs; see, e.g., Cheng et al., J. Biol. Chem., 1998, 273, 14560). Cells were grown in DMEM essentially as previously described (e.g., Singleton et al., J. Biol. Chem., 1996, 271, 31791; Jalava et al., Cancer Res., 1990, 50, 3422) and treated with oligonucleotides at a concentration of 200 nM as described in Example 2. Control cultures were treated with an aliquot of LIPOFECTIN™ that contained no oligonucleotide.

| Substance | % EXPRESSION | % INHIBITION |
| --- | --- | --- |
| 16690 (antisense TTCAACAGTTTCTTGCATAA; sugars from the 5' end e6 d8 e6, all phosphorothioate, methylation of C not given here) [compound 16690] | 60% | 40% |
| 16691 (antisense CTCATCTATAGGAAACGGGT; sugars from the 5' end e6 d8 e6, all phosphorothioate, methylation of C not given here) [compound 16691] | 66% | 34% |
| 16692 (antisense TGGAGGCTCATAAATACCAC; sugars from the 5' end e6 d8 e6, all phosphorothioate, methylation of C not given here) [compound 16692] | 47% | – |
| 16693 (antisense TATAAGAAATGGAGGCTCAT; sugars from the 5' end e6 d8 e6, all phosphorothioate, methylation of C not given here) [compound 16693] | 40% | – |
| 16694 (antisense TCACATCCAATGTTGGTTCA; sugars from the 5' end e6 d8 e6, all phosphorothioate, methylation of C not given here) [compound 16694] | 42% | – |
| 16695 (antisense TTATCGAATCCCTGACAAAA; sugars from the 5' end e6 d8 e6, all phosphorothioate, methylation of C not given here) [compound 16695] | 44% | – |
| 16696 (antisense GTTTGGCAATATATGACACA; sugars from the 5' end e6 d8 e6, all phosphorothioate, methylation of C not given here) [compound 16696] | 55% | – |
| 16697 (antisense CTGTCAAGGACAGCATCATA; sugars from the 5' end e6 d8 e6, all phosphorothioate, methylation of C not given here) [compound 16697] | 54% | – |
| 16698 (antisense AATCACTTGACATAAGTTGG; sugars from the 5' end e6 d8 e6, all phosphorothioate, methylation of C not given here) [compound 16698] | 63% | 37% |
| 16699 (antisense TAAATCCCTGTGAATAATTC; sugars from the 5' end e6 d8 e6, all phosphorothioate, methylation of C not given here) [compound 16699] | 61% | 39% |
| 16702 (antisense TGTTCTCTTTCATCCAACTG; sugars from the 5' end e6 d8 e6, all phosphorothioate, methylation of C not given here) [compound 16702] | 39% | – |
| 16703 (antisense TCTCACTGCTGTTCACTGCT; sugars from the 5' end e6 d8 e6, all phosphorothioate, methylation of C not given here) [compound 16703] | 30% | – |
| 16704 (antisense GGGTCTGGTCGGTGGACATG; sugars from the 5' end e6 d8 e6, all phosphorothioate, methylation of C not given here) [compound 16704] | 36% | – |
| 16705 (antisense AGGCTGCTGTCAGTGTCAGA; sugars from the 5' end e6 d8 e6, all phosphorothioate, methylation of C not given here) [compound 16705] | 42% | – |
| 16706 (antisense TCACCTGCAACAACCCAGGG; sugars from the 5' end e6 d8 e6, all phosphorothioate, methylation of C not given here) [compound 16706] | 45% | – |
| 16707 (antisense GCGGCTAGTCACCTGCAACA; sugars from the 5' end e6 d8 e6, all phosphorothioate, methylation of C not given here) [compound 16707] | 73% | 27% |
| 16708 (antisense CGCTGGGTTTCGCAGGCAGG; sugars from the 5' end e6 d8 e6, all phosphorothioate, methylation of C not given here) [compound 16708] | 68% | 32% |
| 16709 (antisense ATCATCTCCTGAAGAACGCT; sugars from the 5' end e6 d8 e6, all phosphorothioate, methylation of C not given here) [compound 16709] | 66% | 34% |

system: rat JNK1 mRNA; assay: Northern assay of rat JNK1 (p54?) mRNA in A10 aortic smooth muscle cells; type: cell-based; conditions: rat JNK1 mRNA, A10 cells, oligonucleotides targeted to rat JNK1
Procedure: (§1) In order to study the role of JNK proteins in animal models, oligonucleotides targeted to the genes encoding JNK1, JNK2 and JNK3 of Rattus norvegicus were prepared. These oligonucleotides are 2′-methoxyethoxy, phosphodiester/2′-hydroxyl, phosphorothioate/2′-methoxyethoxy, phosphodiester “gapmers” in which every cytosine residue is 5-methylcytosine (m5c). These antisense compounds were synthesized according to the methods of the disclosure. Certain of these oligonucleotides are additionally specifically hybridizable to JNK genes from other species as indicated herein. The oligonucleotides described in this Example were tested for their ability to modulate rat JNK mRNA levels essentially according to the methods described in the preceding Examples, with the exceptions that the cell line used was rat A10 aortic smooth muscle cells (ATCC No. ATCC CRL-1476) and the probes used were specific for rat JNK1, JNK2 or JNK3 (see infra). A10 cells were grown and treated with oligonucleotides essentially as described by (Cioffi et al. Mol. Pharmacol., 1997, 51, 383).
(§2) These antisense compounds were tested for their ability to modulate levels of p54? (JNK1) and p54a (JNK2) mRNA in A10 cells via Northern assays. Due to the high degree of sequence identity between the human and rat genes, radiolabeled human JNK1 (Example 3) and JNK2 (Example 4) cDNAs functioned as specific probes for the rat homologs.

| Substance | % EXPRESSION JNK1 |
| --- | --- |
| 21869 (DNA eGe[5mC]eTeGe[5mC]*dA*d[5mC]*d[5mC]*dT*dA*dA*dA*dG*dG*dA*eGeAe[5mC]eGeG; antisense) [compound 21869] | 30% |
| 21870 (DNA e[5mC]e[5mC]eAeGeA*dG*dT*d[5mC]*dG*dG*dA*dT*d[5mC]*dT*dG*eTeGeGeAe[5mC]; antisense) [compound 21870] | 11% |

system: rat JNK2 mRNA; assay: Northern assay of rat JNK2 (p54a) mRNA in A10 aortic smooth muscle cells; type: cell-based; conditions: rat JNK2 mRNA, A10 cells, oligonucleotides targeted to rat JNK1
Procedure: as §1, §2
These antisense compounds were tested for their ability to modulate levels of p54a (JNK2) mRNA in A10 cells using the radiolabeled human JNK2 cDNA as a probe as described supra. Oligonucleotides showing levels of inhibition from ≧ about 60% to about 100% of rat JNK2 mRNA levels include ISIS Nos. 18254, 18255, 18257, 18258, 18259, 18260 and 18265 (SEQ ID NOS: 125, 126, 128, 129, 130, 131 and 136, respectively). These oligonucleotides are preferred embodiments of the invention for modulating rat JNK2 expression. […] These oligonucleotides are thus more preferred embodiments of the invention for modulating rat JNK2 expression. ISIS 18259 (SEQ ID NO: 130) was chosen for use in further studies (infra).

| Substance | % EXPRESSION JNK2 |
| --- | --- |
| 21869 (DNA eGe[5mC]eTeGe[5mC]*dA*d[5mC]*d[5mC]*dT*dA*dA*dA*dG*dG*dA*eGeAe[5mC]eGeG; antisense) [compound 21869] | 93% |
| 21870 (DNA e[5mC]e[5mC]eAeGeA*dG*dT*d[5mC]*dG*dG*dA*dT*d[5mC]*dT*dG*eTeGeGeAe[5mC]; antisense) [compound 21870] | 87% |
